Laboratory results taken from patent US20260125382A1, “COMPOUNDS FOR INHIBITING OR DEGRADING CDK2 AND/OR CDK9 AND MEDICINAL USE THEREOF” (KOREA RESEARCH INSTITUTE OF CHEMICAL TECHNOLOGY, priority 2022, published 2026).

Tests used:
CDK9 = target: T1, CDK9 (Homo sapiens, UniProt P50750); assay: CDK protein degradation activity (Western blotting), CDK9; format: cell-based; details: MDA-MB-231 cells, 16 hours, Western blot
T1 construct: endogenous in cells; host or cells: MDA-MB-231
Procedure, shortened: (§1)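 Degradation is judged from CDK2 and CDK9 band intensity relative to tubulin and DMSO-treated cells, after 16 h exposure of MDA-MB-231 cells to three compound concentrations (100 nM, 1 μM, 10 μM).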

CDK2 = target: T2, CDK2 (Homo sapiens, UniProt P24941); assay: CDK protein degradation activity (Western blotting), CDK2; format: cell-based; details: MDA-MB-231 cells, 16 hours, Western blot
T2 construct: endogenous in cells; host or cells: MDA-MB-231
Procedure, shortened: as §1

T1 sequence (P50750 whole entry): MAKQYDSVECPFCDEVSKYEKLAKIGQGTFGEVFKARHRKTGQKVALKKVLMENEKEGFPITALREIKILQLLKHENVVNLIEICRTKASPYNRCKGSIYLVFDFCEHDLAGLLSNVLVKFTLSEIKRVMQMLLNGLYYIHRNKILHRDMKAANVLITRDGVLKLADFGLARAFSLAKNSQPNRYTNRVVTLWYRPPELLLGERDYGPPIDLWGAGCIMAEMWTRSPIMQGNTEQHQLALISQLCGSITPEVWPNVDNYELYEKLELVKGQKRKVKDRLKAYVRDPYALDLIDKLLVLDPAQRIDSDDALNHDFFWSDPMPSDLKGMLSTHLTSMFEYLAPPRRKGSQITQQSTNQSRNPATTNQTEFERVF

Row | Compound | Enzyme degradation CDK9 (% remaining) @ 0.1 μM (CDK9) | Enzyme degradation CDK9 (% remaining) @ 1 μM (CDK9) | Enzyme degradation CDK9 (% remaining) @ 10 μM (CDK9) | Enzyme degradation CDK2 (% remaining) @ 0.1 μM (CDK2) | Enzyme degradation CDK2 (% remaining) @ 1 μM (CDK2) | Enzyme degradation CDK2 (% remaining) @ 10 μM (CDK2)
1 | O=C1CC[C@H](n2nnc3ccc(N4CCC(CN5CCC(CCNc6ncnc7c6ncn7C6CC(NC(=O)c7c(Cl)cccc7Cl)C6)CC5)CC4)cc3c2=O)C(=O)N1 (stereo partly drawn) [Compound 398, 2,6-dichloro-N-((1s,3s)-3-(6-((2-(1-((1-(3-(2,6-dioxopiperidin-3-yl)-4-oxo-3,4-dihydrobenzo[d][1,2,3]triazin-6-yl)piperidin-4-yl)methyl)piperidin-4-yl)ethyl)amino)-9H-purin-9-yl)cyclobutyl)benzamide] | 20% | 10% | 10% | 20% | 30% | 30%
2 | N#Cc1cccc(C(=O)NC2CC(n3cnc4c(Nc5ccc(N6CCN(CC7CCN(C(=O)C8CCN(c9cc%10c(cc9F)C(=O)N([C@H]9CCC(=O)NC9=O)C%10=O)CC8)CC7)CC6)cc5)ncnc43)C2)n1 (stereo partly drawn) [Compound 472, 6-cyano-N-((1s,3s)-3-(6-((4-(4-((1-(1-(2-(2,6-dioxopiperidin-3-yl)-6-fluoro-1,3-dioxoisoindolin-5-yl)piperidin-4-carbonyl)piperidin-4-yl)methyl)piperazin-1-yl)phenyl)amino)-9H-purin-9-yl)cyclobutyl)picolinamide] | 0/0/0% | 0/0/0% | 0/0/0% | 40% | 40% | 50%
3 | O=C1CC[C@H](N2C(=O)c3cccc(NCC(=O)N4CCC(CN5CCN(c6ccc(Nc7ncnc8c7ncn8C7CC(NC(=O)c8cccc(Cl)n8)C7)cc6)CC5)CC4)c3C2=O)C(=O)N1 (stereo partly drawn) [Compound 419, 6-chloro-N-((1s,3s)-3-(6-((4-(4-((1-((2-(2,6-dioxopiperidin-3-yl)-1,3-dioxoisoindolin-4-yl)glycyl)piperidin-4-yl)methyl)piperazin-1-yl)phenyl)amino)-9H-purin-9-yl)cyclobutyl)picolinamide] | 0/0/0% | 0/0/0% | 0/0/0% | 10/10/10% | 10/10/10% | 10/10/10%
4 | O=C1CCC(N2C(=O)c3ccc(NCC(=O)N4CCC(CN5CCC(CNc6ncnc7c6ncn7[C@H]6C[C@@H](NC(=O)Cc7ccccc7)C6)CC5)CC4)cc3C2=O)C(=O)N1 (stereo partly drawn) [Compound 185, N-((1s,3s)-3-(6-(((1-((1-((2-(2,6-dioxopiperidin-3-yl)-1,3-dioxoisoindolin-5-yl)glycyl)piperidin-4-yl)methyl)piperidin-4-yl)methyl)amino)-9H-purin-9-yl)cyclobutyl)-2-phenylacetamide] | 0/0/0% | 0/0/0% | 0/0/0% | 100/100/100% | 100/100/100% | 100/100/100%
5 | O=C1CCN(c2coc3cc(C(=O)N4CCC5(CC4)CC(N4CCN(c6ccc(Nc7ncnc8c7ncn8[C@H]7C[C@@H](NC(=O)Cc8ccccc8)C7)cc6)CC4)C5)ccc23)C(=O)N1 [Compound 191, N-((1s,3s)-3-(6-((4-(4-(7-(3-(2,4-dioxotetrahydropyrimidin-1(2H)-yl)benzofuran-6-carbonyl)-7-azaspiro[3.5]nonan-2-yl)piperazin-1-yl)phenyl)amino)-9H-purin-9-yl)cyclobutyl)-2-phenylacetamide] | 0/0/0% | 0/0/0% | 0/0/0% | 0/0/0% | 0/0/0% | 0/0/0%
6 | Cc1cccc(C(=O)N[C@H]2C[C@@H](n3cnc4c(NCCCN5CCN(CC6CCN(C(=O)COc7cccc([C@@H]8CCC(=O)NC8=O)c7)CC6)CC5)ncnc43)C2)n1 [Compound 230, N-((1s,3s)-3-(6-((3-(4-((1-(2-(3-(2,6-dioxopiperidin-3-yl)phenoxy)acetyl)piperidin-4-yl)methyl)piperazin-1-yl)propyl)amino)-9H-purin-9-yl)cyclobutyl)-6-methylpicolinamide] | 30% | 10% | 0% | 50% | 50% | 80%
7 | O=C1CCC(N2C(=O)c3cccc(NCC(=O)N4CCC(CN5CCC(c6ccc(Nc7ncnc8c7ncn8[C@H]7C[C@@H](NC(=O)Cc8ccccc8)C7)cc6)CC5)CC4)c3C2=O)C(=O)N1 (stereo partly drawn) [Compound 288, N-((1s,3s)-3-(6-((4-(1-((1-((2-(2,6-dioxopiperidin-3-yl)-1,3-dioxoisoindolin-4-yl)glycyl)piperidin-4-yl)methyl)piperidin-4-yl)phenyl)amino)-9H-purin-9-yl)cyclobutyl)-2-phenylacetamide] | 0/0/0% | 0/0/0% | 0/0/0% | 10% | 20% | 20%
8 | O=C1CC[C@H](n2nnc3ccc(N4CCC(CN5CCN(c6ccc(Nc7ncnc8c7ncn8C7CC(NC(=O)Cc8ccccc8)C7)cc6)CC5)CC4)cc3c2=O)C(=O)N1 (stereo partly drawn) [Compound 307, N-((1s,3s)-3-(6-((4-(4-((1-(3-(2,6-dioxopiperidin-3-yl)-4-oxo-3,4-dihydrobenzo[d][1,2,3]triazin-6-yl)piperidin-4-yl)methyl)piperazin-1-yl)phenyl)amino)-9H-purin-9-yl)cyclobutyl)-2-phenylacetamide] | 0/0/0% | 0/0/0% | 0/0/0% | 0/0/0% | 0/0/0% | 0/0/0%
9 | Cc1cccc(C(=O)N[C@H]2C[C@@H](n3cnc4c(NCc5ccc(OCCCN6CCN(c7cccc8c7C(=O)N([C@H]7CCC(=O)NC7=O)C8=O)CC6)cc5)ncnc43)C2)n1 [Compound 117, N-((1s,3s)-3-(6-((4-(3-(4-(2-(2,6-dioxopiperidin-3-yl)-1,3-dioxoisoindolin-4-yl)piperazin-1-yl)propoxy)benzyl)amino)-9H-purin-9-yl)cyclobutyl)-6-methylpicolinamide] | 10% | 10% | 0% | 80/80/80% | 80/80/80% | 80/80/80%
10 | O=C1CC[C@H](N2C(=O)c3ccc(NCC(=O)N4CCC5(CC4)CC(N4CCN(c6ccc(Nc7ncnc8c7ncn8C7CC(NC(=O)c8c(Cl)cccc8Cl)C7)cc6)CC4)C5)cc3C2=O)C(=O)N1 (stereo partly drawn) [Compound 318, 2,6-dichloro-N-((1s,3s)-3-(6-((4-(4-(7-((2-(2,6-dioxopiperidin-3-yl)-1,3-dioxoisoindolin-5-yl)glycyl)-7-azaspiro[3.5]nonan-2-yl)piperazin-1-yl)phenyl)amino)-9H-purin-9-yl)cyclobutyl)benzamide] | 0/0/0% | 0/0/0% | 0/0/0% | 20% | 20% | 40%
11 | O=C1CCC(N2C(=O)c3cc(F)c(N4CCC(C(=O)N5CCC(CN6CCC(CCNc7ncnc8c7ncn8[C@H]7C[C@@H](NC(=O)Cc8ccccc8)C7)CC6)CC5)CC4)cc3C2=O)C(=O)N1 (stereo partly drawn) [Compound 461, N-((1s,3s)-3-(6-((2-(1-((1-(1-(2-(2,6-dioxopiperidin-3-yl)-6-fluoro-1,3-dioxoisoindolin-5-yl)piperidin-4-carbonyl)piperidin-4-yl)methyl)piperidin-4-yl)ethyl)amino)-9H-purin-9-yl)cyclobutyl)-2-phenylacetamide] | 30% | 0% | 0% | 70% | 40% | 40%
12 | COc1ccc(C(=O)N2CC(N3CCC4(CC3)CC(N3CCN(c5ccc(Nc6ncnc7c6ncn7[C@H]6C[C@@H](NC(=O)Cc7ccccc7)C6)cc5)CC3)C4)C2)cc1N1CCC(=O)NC1=O [Compound 272, N-((1s,3s)-3-(6-((4-(4-(7-(1-(3-(2,4-dioxotetrahydropyrimidin-1(2H)-yl)-4-methoxybenzoyl)azetidin-3-yl)-7-azaspiro[3.5]nonan-2-yl)piperazin-1-yl)phenyl)amino)-9H-purin-9-yl)cyclobutyl)-2-phenylacetamide] | 30% | 20% | 20% | 40/40/40% | 40/40/40% | 40/40/40%
